# Test results published in patent US20190307843A1, “SINGLE DOSE METHODS FOR PREVENTING AND TREATING FUNGAL INFECTIONS” (Cidara Therapeutics, Inc., priority 2016, published 2019).
# Starred links: 1 amine or outer side, 2 acyl side, 3 side chain; linkers in the order of their positions; H or OH if unused. Positions of bridges follow the written chain, without caps; N, C: chain ends. Non-standard residues stand in square brackets, D forms with d. Residues, ends and D or L forms follow the SMILES beside them. *: point of attachment. Orn(4R-OH,5R-OCH2CH2NMe3+) = C[N+](C)(C)CCO[C@@H](N[*:3])[C@H](O)C[C@H](N[*:1])C(=O)[*:2]; pTerphenylCO(4''-OnC5H11) = CCCCCOc1ccc(-c2ccc(-c3ccc(C(=O)*)cc3)cc2)cc1; hTyr(3S-OH,4S-OH) = N[C@H](C(=O)O)[C@H](O)[C@@H](O)c1ccc(O)cc1; Pro(3S-OH,4S-Me) = C[C@H]1CN[C@H](C(=O)O)[C@H]1O; Hyp = O=C(O)[C@@H]1C[C@@H](O)CN1
# How the values were obtained:
# C. albicans strain 529L = test: Rat model of vulvovaginal candidiasis, vaginal lavage and tissue burden; assay type: in vivo, Candida albicans
# [1] = assay type: in vivo, rat; settings: all treatment dose and duration
# Method: The rats were monitored at a frequency appropriate for their clinical condition. Rat weights were recorded at least once daily to ensure animals remained within ethical limits.
# [2] = test system: A. fumigatus strain AF293; test: Murine model of pulmonary aspergillosis (Example 13), survival
# [3] = 5 mg/kg SC Dosed Once, lavage Day 7 post infection
# [4] = 5 mg/kg SC Dosed Once, lavage Day 9 post infection
# [5] = 5 mg/kg SC Dosed Once, terminal vaginal tissue Day +9 post infection
# [6] = 5 mg/kg SC Dosed Twice, lavage Day 1 post infection, pre-treatment
# [7] = 5 mg/kg SC Dosed Twice, lavage Day 2 post infection
# [8] = 5 mg/kg SC Dosed Twice, lavage Day 3 post infection
# [9] = 5 mg/kg SC Dosed Twice, lavage Day 5 post infection
# [10] = 5 mg/kg SC Dosed Twice, lavage Day 7 post infection
# [11] = 5 mg/kg SC Dosed Twice, lavage Day 9 post infection
# [12] = 5 mg/kg SC Dosed Twice, terminal vaginal tissue Day +9 post infection
# [13] = 10 mg/kg SC Dosed Once, lavage Day 1 post infection, pre-treatment
# [14] = 10 mg/kg SC Dosed Once, lavage Day 2 post infection
# [15] = 10 mg/kg SC Dosed Once, lavage Day 3 post infection
# [16] = 10 mg/kg SC Dosed Once, lavage Day 5 post infection
# [17] = 10 mg/kg SC Dosed Once, lavage Day 7 post infection
# [18] = 10 mg/kg SC Dosed Once, lavage Day 9 post infection
# [19] = 10 mg/kg SC Dosed Once, terminal vaginal tissue Day +9 post infection
# [20] = CD101 5mpk Day −3 vs. CD101 5mpk Day −5
# [21] = CD101 5mpk Day −5 vs. CD101 10mpk Day −5
# [22] = CD101 5mpk Day −5 vs. CD101 20mpk Day −5
# [23] = CD101 20mpk Day −1 vs. CD101 20mpk Day −3
# [24] = Micafungin 2mpk Day −1 vs. CD101 10mpk Day −1
# [25] = Micafungin 2mpk Day −1 vs. CD101 20mpk Day −1
smiles,measurement,setting,value
"CCCCCOc1ccc(-c2ccc(-c3ccc(C(=O)N[C@H]4C[C@@H](O)[C@@H](OCC[N+](C)(C)C)NC(=O)[C@@H]5[C@@H](O)[C@@H](C)CN5C(=O)[C@H]([C@@H](C)O)NC(=O)[C@H]([C@H](O)[C@@H](O)c5ccc(O)cc5)NC(=O)[C@@H]5C[C@@H](O)CN5C(=O)[C@H]([C@@H](C)O)NC4=O)cc3)cc2)cc1 [CD101] ({pTerphenylCO(4''-OnC5H11)}-[Orn(4R-OH,5R-OCH2CH2NMe3+)]T[Hyp][hTyr(3S-OH,4S-OH)]T[Pro(3S-OH,4S-Me)]; lactam 1-C)",Group Geometric mean,C. albicans strain 529L; [3],4.56 × 10^3 CFU/mL
same,Log Group Geometric mean,C. albicans strain 529L; [3],3.66 CFU/mL
same,Log reduction from vehicle control,C. albicans strain 529L; [3],0.52 CFU/mL
same,Group Geometric mean,C. albicans strain 529L; [4],4.58 × 10^3 CFU/mL
same,Log Group Geometric mean,C. albicans strain 529L; [4],3.66 CFU/mL
same,Log reduction from vehicle control,C. albicans strain 529L; [4],0.64 CFU/mL
same,Group Geometric mean,C. albicans strain 529L; [5],1.37 × 10^5 CFU/g
same,Log Group Geometric mean,C. albicans strain 529L; [5],5.14 CFU/g
same,Group Geometric mean,C. albicans strain 529L; [6],1.83 × 10^3 CFU/mL
same,Log Group Geometric mean,C. albicans strain 529L; [6],3.26 CFU/mL
same,Log reduction from vehicle control,C. albicans strain 529L; [6],−0.83 CFU/mL
same,Group Geometric mean,C. albicans strain 529L; [7],2.56 × 10^2 CFU/mL
same,Log Group Geometric mean,C. albicans strain 529L; [7],2.41 CFU/mL
same,Log reduction from vehicle control,C. albicans strain 529L; [7],1.29 CFU/mL
same,Group Geometric mean,C. albicans strain 529L; [8],1.95 × 10^2 CFU/mL
same,Log Group Geometric mean,C. albicans strain 529L; [8],2.29 CFU/mL
same,Log reduction from vehicle control,C. albicans strain 529L; [8],1.28 CFU/mL
same,Group Geometric mean,C. albicans strain 529L; [9],1.73 × 10^3 CFU/mL
same,Log Group Geometric mean,C. albicans strain 529L; [9],3.24 CFU/mL
same,Log reduction from vehicle control,C. albicans strain 529L; [9],0.98 CFU/mL
same,Group Geometric mean,C. albicans strain 529L; [10],6.47 × 10^2 CFU/mL
same,Log Group Geometric mean,C. albicans strain 529L; [10],2.81 CFU/mL
same,Log reduction from vehicle control,C. albicans strain 529L; [10],1.37 CFU/mL
same,Group Geometric mean,C. albicans strain 529L; [11],1.28 × 10^3 CFU/mL
same,Log Group Geometric mean,C. albicans strain 529L; [11],3.11 CFU/mL
same,Log reduction from vehicle control,C. albicans strain 529L; [11],1.19 CFU/mL
same,Group Geometric mean,C. albicans strain 529L; [12],4.00 × 10^4 CFU/g
same,Log Group Geometric mean,C. albicans strain 529L; [12],4.60 CFU/g
same,Group Geometric mean,C. albicans strain 529L; [13],3.68 × 10^2 CFU/mL
same,Log Group Geometric mean,C. albicans strain 529L; [13],2.57 CFU/mL
same,Log reduction from vehicle control,C. albicans strain 529L; [13],−0.13 CFU/mL
same,Group Geometric mean,C. albicans strain 529L; [14],2.48 × 10^2 CFU/mL
same,Log Group Geometric mean,C. albicans strain 529L; [14],2.39 CFU/mL
same,Log reduction from vehicle control,C. albicans strain 529L; [14],1.30 CFU/mL
same,Group Geometric mean,C. albicans strain 529L; [15],23.2 CFU/mL
same,Log Group Geometric mean,C. albicans strain 529L; [15],1.37 CFU/mL
same,Log reduction from vehicle control,C. albicans strain 529L; [15],2.21 CFU/mL
same,Group Geometric mean,C. albicans strain 529L; [16],1.73 CFU/mL
same,Log Group Geometric mean,C. albicans strain 529L; [16],0.24 CFU/mL
same,Group Geometric mean,C. albicans strain 529L; [17],2.59 CFU/mL
same,Log Group Geometric mean,C. albicans strain 529L; [17],0.41 CFU/mL
same,Log reduction from vehicle control,C. albicans strain 529L; [17],3.77 CFU/mL
same,Group Geometric mean,C. albicans strain 529L; [18],2.75 CFU/mL
same,Log Group Geometric mean,C. albicans strain 529L; [18],0.44 CFU/mL
same,Log reduction from vehicle control,C. albicans strain 529L; [18],3.86 CFU/mL
same,Group Geometric mean,C. albicans strain 529L; [19],5.52 CFU/g
same,Log Group Geometric mean,C. albicans strain 529L; [19],0.74 CFU/g
same,Log reduction from vehicle control,C. albicans strain 529L; [19],4.75 CFU/g
same,burden reduction,"C. albicans strain 529L; CD101 5 mg/kg once or twice, lavage Day 5 post infection",about 1 Log10 CFU/m
same,rats having burden below the limit of detection,"C. albicans strain 529L; CD101 10 mg/kg dosed once, lavage Day 5 post infection",5/6
same,rats with burdens below the levels of detection,"C. albicans strain 529L; CD101 10 mg/kg dosed once, terminal vaginal tissue Day 9",5/6
same,reduction in burden,"C. albicans strain 529L; all doses of CD101, lavage Day 2 post infection",about 1.3 Log10 CFU/mL
same,tolerability,[1],well tolerated with no adverse events observed
same,Mean Survival,[2]; CD101 5 mg/kg IP Day 0,67.8 h
same,Median Survival,[2]; CD101 5 mg/kg IP Day 0,64.6 h
same,Mean Survival,[2]; CD101 5 mg/kg IP Day −1,72.1 h
same,Median Survival,[2]; CD101 5 mg/kg IP Day −1,67.6 h
same,Mean Survival,[2]; CD101 5 mg/kg IP Day −3,70.0 h
same,Median Survival,[2]; CD101 5 mg/kg IP Day −3,67.7 h
same,Mean Survival,[2]; CD101 5 mg/kg IP Day −5,65.3 h
same,Median Survival,[2]; CD101 5 mg/kg IP Day −5,65.3 h
same,Mean Survival,[2]; CD101 10 mg/kg IP Day −1,121.8 h
same,Median Survival,[2]; CD101 10 mg/kg IP Day −1,81.0 h
same,Mean Survival,[2]; CD101 10 mg/kg IP Day −3,76.9 h
same,Median Survival,[2]; CD101 10 mg/kg IP Day −3,73.4 h
same,Mean Survival,[2]; CD101 10 mg/kg IP Day −5,67.2 h
same,Median Survival,[2]; CD101 10 mg/kg IP Day −5,65.7 h
same,Mean Survival,[2]; CD101 20 mg/kg IP Day −1,155.6 h
same,Median Survival,[2]; CD101 20 mg/kg IP Day −1,72.3 h
same,Mean Survival,[2]; CD101 20 mg/kg IP Day −3,91.9 h
same,Median Survival,[2]; CD101 20 mg/kg IP Day −3,69.8 h
same,Mean Survival,[2]; CD101 20 mg/kg IP Day −5,75.5 h
same,Median Survival,[2]; CD101 20 mg/kg IP Day −5,69.8 h
same,"Log-Rank test, survival",[2]; [20],0.0183
same,"Peto-Prentice (Wilcoxon) test, survival",[2]; [20],0.0426
same,"Log-Rank test, survival",[2]; [21],0.0009
same,"Peto-Prentice (Wilcoxon) test, survival",[2]; [21],0.0015
same,"Log-Rank test, survival",[2]; [22],0.0009
same,"Peto-Prentice (Wilcoxon) test, survival",[2]; [22],0.0015
same,"Log-Rank test, survival",[2]; [23],0.0387
same,"Peto-Prentice (Wilcoxon) test, survival",[2]; [23],0.033
same,"Peto-Prentice (Wilcoxon) test, survival",[2]; Micafungin 2mpk Day −1 vs. CD101 5mpk Day −1,0.0467
same,"Log-Rank test, survival",[2]; [24],0.0201
same,"Peto-Prentice (Wilcoxon) test, survival",[2]; [24],0.0191
same,"Log-Rank test, survival",[2]; [25],0.0047
same,"Peto-Prentice (Wilcoxon) test, survival",[2]; [25],0.0067
same,"Log-Rank test, survival",[2]; Vehicle vs. CD101 20mpk Day −1,NS (0.0533)
same,"Peto-Prentice (Wilcoxon) test, survival",[2]; Vehicle vs. CD101 20mpk Day −1,0.0465
same,animals completely cleared of CFU burden,"Candida albicans SC5314; CD101 SC 1 mg/kg, by 24 hr",4 of 5
same,kidney CFU compared with the vehicle control,"Candida albicans SC5314; CD101 SC 1, 3, and 10 mg/kg, 24 hr",significant reduction in kidney CFU
same,CFU clearance,"Candida albicans SC5314; CD101 SC 3 or 10 mg/kg, 24 hr",complete CFU clearance
